{"source": "paper PMC5691054", "about": "“An unexpected protein interaction promotes drug resistance in leukemia” (Nature Communications, 2017)", "key": {"[1]": {"target": "T1, ABCC4-PDZ motif and MPP1 interaction (Homo sapiens, UniProt O15439+Q00013)", "T1 sequence (Q00013 1-466)": "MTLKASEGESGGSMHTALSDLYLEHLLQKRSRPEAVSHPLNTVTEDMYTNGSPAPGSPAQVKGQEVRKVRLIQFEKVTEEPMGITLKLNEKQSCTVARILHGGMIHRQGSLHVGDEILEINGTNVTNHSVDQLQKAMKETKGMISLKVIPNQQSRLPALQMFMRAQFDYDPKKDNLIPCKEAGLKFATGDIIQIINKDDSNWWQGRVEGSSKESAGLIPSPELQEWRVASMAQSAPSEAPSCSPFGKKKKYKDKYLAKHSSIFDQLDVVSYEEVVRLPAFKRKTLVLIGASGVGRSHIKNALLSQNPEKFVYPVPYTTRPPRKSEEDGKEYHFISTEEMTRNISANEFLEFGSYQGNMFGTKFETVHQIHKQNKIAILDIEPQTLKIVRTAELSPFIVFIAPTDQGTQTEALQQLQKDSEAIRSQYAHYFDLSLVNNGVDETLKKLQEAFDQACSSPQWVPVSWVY", "T1 sequence (O15439 1301-1325)": "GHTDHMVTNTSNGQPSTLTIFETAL", "assay": "biochemical", "details": "for IC50: 10 concentrations 3.5 nM to 70 μM"}, "MO7e cells [2]": {"system": "MO7e cells", "assay": "6MP cytotoxicity in MO7e cells and CRISPR knock-outs", "format": "cell-based, Human", "details": "MO7e vs. ABCC4 KO; Antimycin A 10 nM, in words", "procedure": "(§1) HEK293 cells transfected with ABCC4 or ABCC4ΔC in the presence or absence of MPP1, MO7e, and Meg01 cells were treated with 10 concentrations of 6MP, ranging from 1 to 1000 µM, for 96 h. Cell viability analysis was determined using CellTiter Glo (Promega). Where applicable, cell penetrating peptides conjugated to the PDZ-binding motif of ABCC4 (labeled either ABCC4-PDZ or ABCC4ΔC) were added to the cells at 20 μM. Media was changed daily and new ABCC4-PDZ/ABCC4ΔC peptide and 6MP was added. IC50 values were calculated using GraphPad Prism.\nCRISPR-Cas9 plasmids containing gRNAs against ABCC4 ([…]) and MPP1 ([…]) were purchased from Sigma Aldrich. MO7e cells were transiently transfected with constructs containing the gRNA, Cas9 Nickase, and a flurophore. Forty-eight hours after transfection, cells were sorted for fluorescent positive cells and single cells were sorted into individual wells of a 96-well plate. Single-sorted cells were allowed to expand and deletion of the gene of interest was verified by immunoblotting.\n(§2) The Meg01, MO7e, and ABCC4 KO MO7e cell lines were plated at 1500 cells per well in a 96-well plate. Cells were treated with 10 concentrations of Antimycin A (Santa Cruz) ranging from 0.01 to 1000 μM. Cell viability was determined using CellTiter Glo (Promega). Meg01, MO7e, and ABCC4 KO MO7e cells in the presence or absence of 10 nM Antimycin A were treated with 10 concentrations of 6MP, ranging from 1 to 1000 µM, for 96 h. Cell viability analysis was determined using CellTiter Glo. IC50 values were calculated using GraphPad Prism."}, "MO7e cells [3]": {"system": "MO7e cells", "assay": "Cytarabine cytotoxicity in MO7e cells", "format": "cell-based, Human", "details": "in words", "procedure": "MO7e cells were seeded at 1500 cells per well of a 96-well plate. Cells were then treated with Cytarabine at increasing concentrations ranging from 0.5 to 500 μM for 4 h in serum-free media. Cells were washed three times with PBS and replaced with fresh complete media for 68 h. Cell viability analysis was determined using CellTiter Glo. Where applicable, cells were treated with 10 nM Antimycin A. IC50 values were calculated using GraphPad Prism."}, "[4]": {"system": "mitochondrial function of MO7e and ABCC4 KO MO7e cells", "assay": "Mitochondrial function (relative ATP, TMRE, MitoTracker Green)", "format": "cell-based, Human", "details": "10 nM", "procedure": "WT and ABCC4 KO MO7e cells were treated with DMSO or 10 nM Antimycin A before incubation with TMRE or MitoTracker Green (Life Technologies) for 15 min. After incubation, cells were analyzed with BD Biosciences flow cytometer and mean fluorescence intensity was calculated. Relative ATP amounts were determined by the CellTiter Glo Assay."}, "Meg01 cells": {"system": "Meg01 cells", "assay": "6MP cytotoxicity in Meg01 cells", "format": "cell-based, Human", "details": "Antimycin A 10 nM, in words", "procedure": "as §1, §2"}, "MPP1": {"target": "T2, MPP1 (Homo sapiens, UniProt Q00013)", "T2 construct": "incubated with various concentrations of full-length MPP1; His tag (N); S-tag (N); made in house; host or cells: E. coli", "T2 sequence (Q00013 1-466)": "T1 sequence (Q00013 1-466)", "assay": "MPP1 protein expression (immunoblot)", "format": "cell-based", "details": "Antimycin A treatment; Meg01 cells (Supplementary Fig. 6e), in words", "description": "Forty-eight hours after transfection, cells were trypsinized and washed twice in PBS. Cells were lysed in MPER lysis buffer (Pierce) containing 1× protease inhibitor cocktail (Roche). Cell lysates were subjected to three rounds of sonication on ice with a minimum of 15 s of sonication per round. Protein concentration of the lysates was quantified using a Bradford assay (Biorad). Twenty-five micrograms of total protein lysates were loaded and separated by SDS-PAGE on a 10% gel. Proteins were then transferred to a nitrocellulose membrane (GE Healthcare) and probed with antibodies directed against various proteins of interest. The levels of pAcGFP-tagged ABCC4 and ABCC4ΔC were determined using the polyclonal full-length GFP antibody (1:2000, Santa Cruz). The level of MPP1 was detected using the monoclonal p55/MPP1 antibody (1:2500) from Epitomics. Where specified, the levels of ABCC4 were detected by using the rat monoclonal M4I10 antibody (1:2000, Abcam). An anti-Actin antibody was used as a loading control (1:10,000). Secondary antibodies conjugated to HRP (1:2000, GE Healthcare) were used. For co-immunoprecipitation experiments, light chain-specific secondary antibodies (1:5000, Jackson Immunoresearch) was used to prevent cross-contamination with heavy chain antibodies. The Clarity chemiluminescence (BioRad) reagent was used to detect the proteins. […]"}, "[5]": {"system": "murine hematopoietic progenitor cells (HPC)", "assay": "Hematopoietic progenitor cell serial replating in methylcellulose", "protocol": "In these experiments, littermates were used as controls. Bone marrow from 8- to 12-week-old female virgin C57/BL6 mice were harvested. Progenitors were enriched by incubating with lineage-PE antibodies (CD4, CD8, Mac1, Gr1, NK1.1, B220, and Ter119) and separated using AutoMACS Pro (Miltenyi). Hematopoetic progenitor cells were cultured in the presence of recombinant murine SCF (rmSCF), IL3 (rmIL3), and IL6 (rmIL6) (Peprotech; all 50 ng/ml) for 48 h before transduction on RetroNectin (Takara) coated plates. Retroviral supernatant containing media was produced by transient transfection of HEK293T cells with MSCV based retroviral plasmids encoding either MYCN-ires-YFP or MPP1-ires-CFP as previously described[35]. Forty-eight hours post transduction, cells were harvested, sorted for either YFP or CFP expression, and plated on methylcellulose containing IL3, IL6, SCF, and EPO (Stem Cell Technologies). Colonies were counted after 7 days growth at 37 °C, harvested, and replated."}}, "note": "“Also recorded” adds a separate entry of the source. Like-named read-outs stand apart in the source and are kept apart here."}
{"compound": "CCCCCC[C@H]1C(=O)O[C@H](C)[C@H](NC(=O)c2cccc(NC=O)c2O)C(=O)O[C@@H](C)[C@@H]1OC(=O)CC(C)C", "note": "[Antimycin A]", "values": [{"measurement": "IC50", "setting": "[1]; 500 nM B-ABCC4, 5 nM His-S-MPP1, 0.7% DMSO, read-out: IC50 for complex disruption (TR-FRET)", "result": "~3", "unit": "nM"}, {"measurement": "IC50", "setting": "[1]; figure value, 500 nM B-ABCC4, 5 nM His-S-MPP1, triplicate, read-out: IC50 for disruption of MPP1 and ABCC4 interaction (TR-FRET)", "result": 3.9, "unit": "nM"}, {"measurement": "TR-FRET dose response / disruption of interaction", "setting": "[1]; in words", "result": "the most potent"}, {"measurement": "effect of Antimycin A on 6MP sensitivity", "setting": "MO7e cells [2]", "result": "shifted the 6MP dose–response curve to the left, but only for cells harboring ABCC4, not ABCC4 KO cells; also recorded: specifically sensitizes ABCC4 expressing MO7e cells, but not ABCC4 KO cells"}, {"measurement": "effect of Antimycin A on cytarabine sensitivity", "setting": "MO7e cells [3]; MO7e vs. MO7e-ABCC4 knockout, Antimycin A 10 nM", "result": "specifically sensitized MO7e cells to Cytarabine, but not MO7e-ABCC4 knockout cells; also recorded: specifically sensitizes ABCC4 expressing MO7e cells, but not ABCC4 KO cells"}, {"measurement": "effect of co-treatment on IC50 for cytarabine", "setting": "MO7e cells [3]; peer review file", "result": "reduce the IC50 for cytarabine"}, {"measurement": "relative ATP", "setting": "[4]; CellTiter Glo, triplicate", "result": "Equal relative"}, {"measurement": "effect on mitochondrial function", "setting": "[4]; in words", "result": "does not selectively affect the mitochondrial; also recorded: minimal effect on mitochondria; also recorded: not exclusively disruptive to mitochondrial function in cells lacking or containing ABCC4"}, {"measurement": "effect of Antimycin A on 6MP sensitivity", "setting": "Meg01 cells", "result": "sensitized to 6MP by Antimycin A (10 nM)"}, {"measurement": "effect on protein expression of MPP1", "setting": "MPP1", "result": "unchanged; also recorded: does not reduce the protein expression of MPP1"}, {"measurement": "effect on MPP1-driven methylcellulose replating", "setting": "[5]; HPC transduced with MPP1, Antimycin A 10 nM, triplicate", "result": "blocked replating of MPP1 overexpressing HSC; also recorded: attenuated"}, {"measurement": "effect on colony formation of normal hematopoietic progenitors", "setting": "[5]; normal hematopoietic progenitors, Antimycin A 10 nM (peer review file)", "result": "did not effect; also recorded: does not reduce the"}]}
